# In patent US11866466B2, “Tumor homing and cell penetrating peptide-immuno-oncology agent complexes and methods of use thereof” (BLAZE BIOSCIENCE, INC., priority 2017, dated 2024):
# {ppp} = triphosphate on the strand's 5' end
# Tests used:
# [1] = system: CT26 colon carcinoma cells; test: Intratumoral microinjection in CT26 flank tumors, cleaved caspase 3 (CC3) immunostaining; format: in vivo, mouse
# [2] = system: STING; conditions: from Lioux et al.; cited from earlier work
# [3] = system: Mo7e cells; test: Mo7e proliferation assay (PrestoBlue); format: cell-based, human; conditions: 3 days incubation (FIG. 29)
# Procedure: (§1) This example describes in vitro proliferation of cells treated with peptide-IL-15 agent complexes using cytokine dependent CTLL2 (mouse cytotoxic T lymphocyte cell line), Mo7e (human acute megakaryoblastic leukemia cell line) and human primary CD8+ T cells. All assays were performed in the 96 well plate format in clear bottom black walled tissue culture plates. Peptide-I/O complexes comprising SEQ ID NO: 568, peptide-I/O complexes comprising an IL-15 agent, and peptide-I/O complexes comprising a His-tagged RLI control proteins (SEQ ID NO: 1342) were diluted in culture media without cytokine supplement. […]
# CTLL2 and Mo7e cells were maintained as cell cultures in media containing either IL-2 (CTLL2) or IL-3 (Mo7e). Viability and cell concentration were analyzed using a Viacell cell counter. […]
# After the end of the incubation period, PrestoBlue live cell assay reagent (Invitrogen) was added to each well (10 μL per 100 μL well). […] Fluorescence was quantified using an Envision (Perkin Elmer 2104) plate reader. Data was graphed and analyzed in Excel, GraphPad Prism 7, or the AAT Bioquest graphing and EC50 calculator https://www.aatbio.com/tools/ec50-calculator. […]
# After the end of the incubation period, PrestoBlue live cell assay reagent (Invitrogen) was added to each well per manufacture instructions. […] PrestoBlue fluorescence was quantified using an Envision (Perkin Elmer 2104) plate reader.
# [4] = system: CD8+ primary human T cells; test: CD8+ primary human T cell proliferation assay (PrestoBlue); format: cell-based; conditions: FIG. 30A
# Procedure: as §1
# (§2) CD8+ selected primary human T-cells were received as frozen cells and stored in the LN2 vapor phase until used. […] 15 mL of room temperature 10% FBS RPMI media was added to the cell suspension; the cells were then pelleted, resuspended in 10% FBS media, and counted using the Viacell. […]
# (§3) After the end of the incubation period, PrestoBlue live cell assay reagent (Invitrogen) was added to each well (10 μL per 100 μL well). […] Fluorescence was quantified using an Envision (Perkin Elmer 2104) plate reader. Data was graphed and analyzed in Excel, GraphPad Prism 7, or the AAT Bioquest graphing and EC50 calculator https://www.aatbio.com/tools/ec50-calculator.
# [5] = system: PHA induced T cell blasts; test: PHA induced T cell blast proliferation assay (PrestoBlue); format: cell-based, human; conditions: FIG. 30B; same CD8+ T cell donor
# Procedure: as §1, §2, §3
# [6] = Tolerability of intraperitoneal peptide-IL-15 agent complexes in CT26 tumor mice; format: in vivo, mouse; conditions: 1-12 ug in 100 μl, 4 days a week intraperitoneally, 7 doses
# Procedure: This example describes peptide-IL-15 agent complex accumulation in tumors. Peptide-IL-15 agent complexes such as this in example 18 were expressed and purified. Mice were dosed with 0.2 million CT26 cells, which were allowed to grow for 5 days, at which time tumors were palpable. Mice were dosed with 1-12 ug of SEQ ID NO: 1317, SEQ ID NO: 1321, an RLI, or no agent in 100 μl 4 days a week intraperitoneally. […] After 7 doses, the animals were sacrificed and the tumor tissue was harvested and fixed.
# [7] = system: A20 lymphoma cells; test: Intratumoral microinjection in A20 lymphoma tumors, CC3 immunostaining and radial plot analysis; format: in vivo, mouse; conditions: for CC3 staining (apoptosis) at injection site: 24 hours after administration, complex at 1 μg and 2 μg doses (FIG. 81)
# [8] = system: IFN pathway (JAK/STAT/ISGF3 pathway and/or IRF3 pathway) in SEAP reporter cells; RIG-I; test: B16-Blue IFN-alpha/beta SEAP reporter cell assay; format: cell-based, murine; conditions: for luminescence signal (RLU) from activating the IFN pathway: 12 pmol or 120 pmol, 24, 48, or 72 hours, no transfection reagent (FIG. 19); for RLU signal in the presence of transfection reagent: with Lipofectamine transfection reagent (FIG. 22)
# [9] = system: A20 lymphoma cells; test: Intratumoral microinjection in A20 tumors, IFNb mRNA in situ hybridization (RNAscope); format: in vivo, mouse; conditions: 4 hours after administration; complex at 1 ug or 2 ug (FIG. 84, FIG. 85)
molecule,measurement,setting,value
CCN(CC)CCCC(C)Nc1ccnc2cc(Cl)ccc12 (stereo not shown) [chloroquine],CC3 staining (apoptosis) at injection site,[1]; 4 hours post-treatment (FIG. 16),did not have a significant region of CC3 staining
same,CC3 staining (apoptosis) at injection site,"[1]; 24 h, other animals tested",One animal showed CC3 staining
"Nc1ncnc2c1ncn2C1OC2COP(=O)(S)OC3CC(n4cnc5c(=O)[nH]cnc54)OC3COP(=O)(S)OC2C1F (stereo not shown) [Analog 56, c-[2′FdAM(PS)-dIM(PS)]]","activity relative to 2′,3′-cGAMP",[2],"more potent than 2′,3′-cGAMP"
"SEQ ID NO: 1342: His-tagged RLI protein comprising SEQ ID NO: 1169, SEQ ID NO: 1176 (IL-15Ra sushi+) and SEQ ID NO: 1177 (IL-15)","cytokine activity, proliferation",[3],stimulate Mo7e cells
same,"cytokine activity, proliferation",[4],stimulate human CD8+ T cells
same,"cytokine activity, proliferation",[5],stimulate human CD8+ T cells
same,tolerability of treatments,[6],well tolerated
Cc1ccc2c(=O)c3cccc(CC(=O)O)c3oc2c1C [DMXAA],CC3 staining (apoptosis) at injection site,[7],do not show similarly strong induction of apoptosis
"5′ppp hpRNA: I/O comprising a dsRNA SEQ ID NO: 1371 with a 5′ppp, which forms a hairpin structure (GCAUGCGACCUCUGUUUGAUCAAACAGAGGUCGCAUGC; RNA, 5' {ppp}, backbone and methylation of C not given here; hairpin RNA)",luminescence signal (RLUs) with transfection reagent,"[8]; 16.2 pmole, 24 hours, with Lipofectamine (FIG. 80)",High signaling
same,fraction of cells positive for CC3 staining versus distance from injection site (radial plot),"[7]; 24 hour timepoint, 7-8 tumors per test article, complex at 1 μg and 2 μg (FIG. 82)",very little increase in CC3 positive cells
same,CC3 staining (apoptosis) at injection site,[7],do not show similarly strong induction of apoptosis
same,IFNb mRNA staining at injection site,[9],significant IFNb mRNA staining
"3′,2′c-AIMP [Analog 23]","activity relative to 2′,3′-cGAMP",[2],"equivalent in activity to 2′,3′-cGAMP"
"dsRNA: SEQ ID NO: 1424 and SEQ ID NO: 1425 (no terminal phosphates on either strand) complexed together (chain 1 GCAUGCGACCUCUGUUUGA; chain 2 UCAAACAGAGGUCGCAUGC; RNA, backbone and methylation of C not given here; further chemistry not fully specified)",luminescence signal (RLU) from activating the IFN pathway,[8],Very little signal
same,RLU signal in the presence of transfection reagent,[8],much lower signaling
"Nc1ncnc2c1ncn2C1OC2COP(=O)(O)O[C@@H]3C(COP(=O)(O)O[C@@H]1[C@@H]2O)OC(n1cnc2c(=O)[nH]cnc21)[C@@H]3O (stereo partly shown) [Analog 10, 2′,3′c-AIMP]","activity relative to 2′,3′-cGAMP",[2],"equivalent in activity to 2′,3′-cGAMP"
"Nc1ncnc2c1ncn2C1C[C@@H]2OP(=O)(O)OCC3OC(n4cnc5c(=O)[nH]cnc54)C[C@@H]3OP(=O)(O)OCC2O1 (stereo partly shown) [Analog 51, c-(dAMP-dIMP)]","activity relative to 2′,3′-cGAMP",[2],"equivalent in activity to 2′,3′-cGAMP"
"Nc1ncnc2c1ncn2C1C[C@@H]2OP(=O)(O)OCC3OC(n4cnc5c(=O)[nH]cnc54)[C@H](F)[C@@H]3OP(=O)(O)OCC2O1 (stereo partly shown) [Analog 55, c-(dAMP-2′FdIMP)]","activity relative to 2′,3′-cGAMP",[2],"equivalent in activity to 2′,3′-cGAMP"
"5′ppp dsRNA: SEQ ID NO: 1424 (with triphosphate on the 5′ end) and SEQ ID NO: 1425 (no terminal phosphates) complexed together (chain 1 GCAUGCGACCUCUGUUUGA; chain 2 UCAAACAGAGGUCGCAUGC; chain 1: RNA, 5' {ppp}, backbone and methylation of C not given here; chain 2: RNA, backbone and methylation of C not given here)",luminescence signal (RLU) from activating the IFN pathway,[8],Very little signal
same,RLU signal in the presence of transfection reagent,[8],high signaling
c-[2′FdAMP(S)-2′FdIMP(S)] [Analog 53],"activity relative to 2′,3′-cGAMP",[2],"more potent than 2′,3′-cGAMP"
"Nc1ncnc2c1ncn2C1OC2COP(=O)(O)OC3C(COP(=O)(O)OC2C1O)OC(n1cnc2c(=O)[nH]cnc21)C3O (stereo not shown) [Analog 9, 3′,3′c-AIMP]","activity relative to 2′,3′-cGAMP",[2],"equivalent in activity to 2′,3′-cGAMP"
"Nc1ncnc2c1ncn2C1OC2COP(=O)(O)O[C@@H]3C(COP(=O)(O)O[C@H]2[C@H]1F)OC(n1cnc2c(=O)[nH]cnc21)[C@@H]3F (stereo partly shown) [Analog 52, c-(2′FdAMP-2′FdIMP)]","activity relative to 2′,3′-cGAMP",[2],"more potent than 2′,3′-cGAMP"
"Nc1ncnc2c1ncn2C1OC2COP(=O)(O)OC3CC(n4cnc5c(=O)[nH]cnc54)OC3COP(=O)(O)OC2C1F (stereo not shown) [Analog 54, c-(2′FdAMP-dIMP)]","activity relative to 2′,3′-cGAMP",[2],"equivalent in activity to 2′,3′-cGAMP"
cAIM(PS)2 [Analog 13],"activity relative to 2′,3′-cGAMP",[2],"more potent than 2′,3′-cGAMP"
